Measurements taken from article PMC7076255, “A Redox-Sensitive Thiol in Wis1 Modulates the Fission Yeast Mitogen-Activated Protein Kinase Response to H2O2 and Is the Target of a Small Molecule” (Molecular and Cellular Biology, 2020).

Molecular target: T1, Wis1 (Schizosaccharomyces pombe, UniProt P33886)
T1 construct: full length, N-terminal HA3 tag (JJS6, thermal shift) or N-terminal HA and C-terminal His6 tags (JJS7, kinase assay); nmt1 promoter at the chromosomal locus; expressed in S. pombe
T1 sequence (P33886 1-605): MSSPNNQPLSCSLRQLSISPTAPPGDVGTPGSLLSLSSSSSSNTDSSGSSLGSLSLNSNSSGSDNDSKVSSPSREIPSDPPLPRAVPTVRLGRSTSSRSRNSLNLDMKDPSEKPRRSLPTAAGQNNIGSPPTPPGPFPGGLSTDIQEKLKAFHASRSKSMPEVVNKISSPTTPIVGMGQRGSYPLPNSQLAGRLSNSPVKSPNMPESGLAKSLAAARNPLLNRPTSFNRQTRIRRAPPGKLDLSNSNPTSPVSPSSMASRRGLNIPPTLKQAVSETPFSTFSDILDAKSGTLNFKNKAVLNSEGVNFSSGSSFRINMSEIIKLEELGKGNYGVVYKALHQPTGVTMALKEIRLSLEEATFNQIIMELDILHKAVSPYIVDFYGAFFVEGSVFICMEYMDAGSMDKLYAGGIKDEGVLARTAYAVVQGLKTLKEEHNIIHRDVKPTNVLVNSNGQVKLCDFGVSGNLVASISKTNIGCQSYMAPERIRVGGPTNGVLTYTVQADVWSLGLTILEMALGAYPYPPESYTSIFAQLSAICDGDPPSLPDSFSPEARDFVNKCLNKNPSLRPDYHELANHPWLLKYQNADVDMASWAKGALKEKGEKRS
Experiment: thermal shift in crude lysate, Western blot of soluble HA-Wis1
Format: biochemical

ΔTm at 3 µM: 2 °C
Compound: CCOc1cccc(-c2cc(=O)c3ccccc3o2)c1N [INR119]
